The subject of the data set is γH2AX. Kind of data set: Impurity genotoxicity assessment with the SERS cell-based sensor (L02 cells, Anti γH2AX@GPMT probe), fold of induction of γH2AX. The conditions noted are these: 24 h incubation, MMS 50 μg/ml, SA 50 μg/ml, 5-Fu 0.1 μg/ml, NDEA 500 μg/ml, FI > 1.5 judged genotoxic. The protocol: A human liver cell line L02 is cultured in DMEM containing 10% fetal calf serum, and put in a 37° C. incubator containing 5% CO2, and a sterile operation is performed in an entire process. When the cells grow to a logarithmic phase, L02 is inoculated into a 24-well plate containing a cell slide according to a density of 5000 cells/well, after being attached to a wall, a culture medium is replaced by a SERS probe culture medium with a concentration being 0.05 nM, and incubation is performed for 4 h.
The cell-based sensor culture medium is replaced by a culture medium containing impurities of different concentrations, continuous incubation is performed for 24 h, then the slide is taken out and put in a confocal inverted microscope bright and dark field imaging Raman spectrometer to be tested, the Raman signals of the test group and the control group are compared, and the impurity genotoxicity is assessed.
Methyl methanesulfonate (MMS), a salicylic acid (SA), 5-fluorouracil (5-Fu) and N-nitrosodiethylamine (NDEA) are selected respectively as genotoxic impurities of different structure types to be tested. […]

For `O=C(O)c1ccccc1O` [SA, salicylic acid], the “FI value (fold of induction, concentration ratio of effector molecules of test group and control group)” value amounted to 1.02.

Turning to `CCN(CC)N=O` [NDEA, N-nitrosodiethylamine], the “FI value (fold of induction, concentration ratio of effector molecules of test group and control group)” value was 3.59.
